We go through one compound from paper PMC10035904, “Synthesis of novel sulphamethoxazole derivatives and exploration of their anticancer and antimicrobial properties” (PLOS ONE, 2023).

Each structure is given as a SMILES string. In brackets after ≈: the same amount, converted by molar mass. A value given as a limit tells only on which side of the number the result lay.

What all share (format): cell-based
The subject of assay [1] is Enterococcus faecalis ATCC 29212. The assay is described as follows: Serial dilution on solid agar, E. faecalis. As to conditions: ATCC29212, solid Mueller-Hinton agar, 24 hours. Here is the method: (§1) Antimicrobial activity of compound 16b on solid agar was tested using the same microbial cultures, and the same suspension preparation procedure, as described in above section. All procedures were done in aseptic conditions.
(§2) Mueller-Hinton agar was boiled and kept at to 37 °C during the whole procedure. Compound 16b solution was prepared in DMSO right before experiment. The Agar was mixed with compound solution at different ratios to make the final compound concentrations of 1 mM, 400 μM, 200 μM and 100 μM. Then 10 ml of prepared solution was poured into sterile Petri dishes (85 mm in diameter) and kept in aseptic conditions while the agar solidified. The agar with 0.5% of DMSO served as a negative control. With the help of loop standard microbial cultures by 0.1 ml were poured on the surface of prepared agar with investigative compound. Then Petri dishes were kept for 24 hours in thermostatic conditions.
(§3) The minimal dilution, i.e. the lowest concentration in μg/mL of the investigative and comparison compounds that inhibited visible growth of microorganisms was the minimal inhibitory concentration (MIC).

In assay [2] the test system is Candida albicans ATCC 60193. The assay is described as follows: Serial broth dilution in liquid medium, C. albicans. The conditions noted are these: ATCC60193, Mueller-Hinton broth, 48 hours, 50% reduction of microbial growth, n = 3. Here is the method: (§4) Antibacterial and antifungal susceptibility to the compound 16b was tested using a serial broth dilution technique in Mueller-Hinton broth II (BBL, Cockeysville, USA), as described elsewhere. All procedures were done in aseptic conditions. Standard bacterial and fungal cultures were used: Staphylococcus aureus ATCC 25923, Staphylococcus epidermidis ATCC 12228, Escherichia coli ATCC 25922, Enterococcus faecalis ATCC 29212, Klebsiella pneumoniae ATCC 33499, Pseudomonas aeruginosa ATCC 27853, Proteus mirabilis ATCC 12459, Bacillus cereus ATCC 8035, and Candida albicans ATCC 60193. Standard cultures of nonsporic bacteria S. aureus, S. epidermidis, E. coli, E. faecalis, K. pneumoniae, P. aeruginosa and P. mirabilis were cultivated for 20–24 hours at 37°C in Mueller-Hinton Agar (BBL, Cockeysville, USA). A bacterial suspension was prepared from cultivated bacterial cultures in physiological solution according to turbidity standard 0.5 McFarland. Standard culture of sporic bacteria B. cereus was cultivated for 7 days at 37°C in Mueller-Hinton II Agar. […] Then the absorbance was measured at 600 nm using a multi-detection microplate reader. […]

For assay [3], the system named is Pseudomonas aeruginosa ATCC 27853. Briefly: Serial dilution on solid agar, P. aeruginosa. The conditions noted are these: ATCC27853, solid Mueller-Hinton agar, 24 hours. Here is the method: as §1, §2, §3
In assay [4] the test system is Bacillus cereus ATCC 8035. The assay is described as follows: Serial broth dilution in liquid medium, B. cereus. The conditions noted are these: Mueller-Hinton broth, 24 hours; result in words. On the procedure:
as §4

Assay [5] deals with Staphylococcus epidermidis ATCC 12228. The assay is described as follows: Serial dilution on solid agar, S. epidermidis. The conditions noted are these: ATCC12228, solid Mueller-Hinton agar, 24 hours. Here is the method: as §1, §2, §3
Assay [6] deals with human clear cell renal cell carcinoma line (CaKi-1). Briefly: MTT cell viability assay, CaKi-1. As to conditions: 72 hours of incubation, n = 3, read-out: EC50 against CaKi-1. Here is the method:
(§5) The human clear cell renal cell carcinoma line (CaKi-1) was obtained from American Type Culture Collection (ATCC, Manassas, VA). The human prostate carcinoma cell line PPC-1 was originally obtained from ATCC and kindly provided by Prof. Tambet Teesalu (University of Tartu, Estonia). Human foreskin fibroblasts (HF) CRL-4001 were originally obtained from ATCC and kindly provided by Prof. Helder Santos (University of Helsinki, Finland). Cells were cultured in Dulbecco’s Modified Eagle’s GlutaMAX medium (Gibco (Carlsbad, CA, USA) supplemented with 10,000 U/mL penicillin, 10 mg/mL streptomycin (Gibco), and 10% fetal bovine serum (Gibco). During cell passaging, Tryple Express reagent (Gibco) was used for cell detachment. Cell cultures were grown at 37°C in a humidified atmosphere containing 5% CO2. They were used until the passage of 20.
(§6) The effect of synthesized compounds on cell viability was studied using 3-(4,5-dimethylthiazol-2-yl)-2,5-diphenyltetrazolium bromide (MTT; Sigma-Aldrich Co., St Louis, MO, USA) assay, as described elsewhere. […] The absorbance was measured at 570 and 630 nm using a multi-detection microplate reader. The compound effect on cell viability was calculated using a formula (1): Relativecellviability%=A−A0/ANC−A0 (1) Where: […]

The test system of assay [7] is Human foreskin fibroblasts (HF) CRL-4001. Briefly: MTT cell viability assay, fibroblasts HF. As to conditions: Fibroblast, 72 hours of incubation, n = 3, read-out: EC50 against HF. On the procedure:
as §5, §6

Assay [8] concerns Bacillus cereus ATCC 8035. Briefly: Serial dilution on solid agar, B. cereus. The conditions noted are these: ATCC8035, solid Mueller-Hinton agar, 24 hours. On the procedure:
as §1, §2, §3

Assay [9] deals with Enterococcus faecalis ATCC 29212. The assay is described as follows: Serial broth dilution in liquid medium, E. faecalis. The conditions noted are these: ATCC29212, Mueller-Hinton broth, 24 hours, 50% reduction of microbial growth, n = 3. Here is the method:
as §4

As for `Cc1cc(NS(=O)(=O)c2ccc(NCCC(=O)NN=Cc3ccc([N+](=O)[O-])o3)cc2)no1` [Compound 16b, N-(5-methylisoxazol-3-yl)-4-((3-(2-((5-nitrofuran-2-yl)methylene)hydrazineyl)-3-oxopropyl)amino)-benzenesulfonamide], the MIC in assay [1] is 1000 µM (≈ 462 µg/mL); in assay [3], more than 1000 µM; in [5], 100 µM (≈ 46.2 µg/mL); in assay [8], 400 µM (≈ 185 µg/mL). The EC50 in [2] is 85.5 ± 7.1 µM; in [6], 12.4 ± 1.6 µM; in assay [7], 9.5 ± 2.7 µM; in [9], 90 ± 6 µM. In [4], the “sensitivity of B. cereus in liquid medium” value is on record as “most sensitive”.
